Experimental data: US20130156762A1, “Mechanically-Activated Cation Channels” (The Scripps Research Institute, priority 2010, published 2013)

What was measured:
Piezo2 = target: T1, Piezo2 (Mus musculus, UniProt Q8CD54); experiment: Block of Piezo2-induced MA currents in Piezo2-expressing cells (whole-cell); format: cell-based; conditions: for Percent block of Piezo2-induced MA currents: 30 μM
T1 construct: expressed in transfected cells; host or cells: N2A (with Piezo1 siRNA) or HEK293T; A13: N2A
Procedure: (§1) Patch-clamp experiments were performed in standard whole-cell or cell attached recordings using an Axopatch 200B amplifier (Axon Instruments). Patch pipettes had resistance of 2-3 MΩ when filled with an internal solution consisting of (in mM) 133 CsCl, 10 HEPES, 5 EGTA, 1 CaCl2, 1 MgCl2, 4 MgATP, and 0.4 Na2GTP (pH adjusted to 7.3 with CsOH). The extracellular solution consisted of (in mM) 127-130 NaCl, 3 KCl, 1 MgCl2, 10 HEPES, 2.5 CaCl2, 10 glucose (pH adjusted to 7.3 with NaOH). NMDG solution consisted of (in mM) 150 NMDG, 10 HEPES (pH 7.5). For ion selectivity experiments, internal solution consisted of (in mM) 150 CsCl, 10 Hepes (pH 7.3 with CsOH), monovalent external solutions consisted of (in mM) 150 NaCl or KCl, 10 HEPES (pH 7.3 with NaOH or KOH) and divalent external solutions consisted of (in mM) 100 CaCl2 or MgCl2, 10 HEPES (pH 7.3 with CsOH). For cell attached recordings, pipette were filled with a solution consisting of (in mM) 130 NaCl, 5 KCl, 10 HEPES, 1 CaCl2, 1 MgCl2, 10 TEA-C1 (pH 7.3 with NaOH) and external solution used to zero the membrane potential consisted of (in mM) 140 KCl, 10 HEPES, 1 MgCl2, 10 glucose (pH 7.3 with KOH). All experiments were done at room temperature. Currents were sampled at 20 kHz and filtered at 2 kHz. Voltages were not corrected for a liquid junction potential excepted for ion selectivity experiments were LJP were calculated using Clampex 10.1 software (Axon Instruments). Leak currents before mechanical stimulations were subtracted off-line from the current traces. 10 mM ruthenium red stock solution was prepared in DMSO; 100 mM gadolinium stock solution, in water.
(§2) For whole-cell recordings mechanical stimulation was achieved using a fire-polished glass pipette (tip diameter 3-4 μm) positioned at an angle of 80° to the cell being recorded. Downward movement of the probe toward the cell was driven by a Clampex controlled piezo-electric crystal microstage (E625 LVPZT Controller/Amplifier; Physik Instrumente). […] Inward MA currents were recorded at a holding potential of −80 mV. […]

Piezo1 = target: T2, Piezo1 (Mus musculus, UniProt E2JF22); experiment: Block of Piezo1-induced MA currents in Piezo1-expressing cells (whole-cell); format: cell-based; conditions: for Percent block of Piezo1-induced MA current: 30 μM
T2 construct: expressed in transfected cells; HEK293T for immunocytochemistry
T2 sequence (E2JF22 whole entry): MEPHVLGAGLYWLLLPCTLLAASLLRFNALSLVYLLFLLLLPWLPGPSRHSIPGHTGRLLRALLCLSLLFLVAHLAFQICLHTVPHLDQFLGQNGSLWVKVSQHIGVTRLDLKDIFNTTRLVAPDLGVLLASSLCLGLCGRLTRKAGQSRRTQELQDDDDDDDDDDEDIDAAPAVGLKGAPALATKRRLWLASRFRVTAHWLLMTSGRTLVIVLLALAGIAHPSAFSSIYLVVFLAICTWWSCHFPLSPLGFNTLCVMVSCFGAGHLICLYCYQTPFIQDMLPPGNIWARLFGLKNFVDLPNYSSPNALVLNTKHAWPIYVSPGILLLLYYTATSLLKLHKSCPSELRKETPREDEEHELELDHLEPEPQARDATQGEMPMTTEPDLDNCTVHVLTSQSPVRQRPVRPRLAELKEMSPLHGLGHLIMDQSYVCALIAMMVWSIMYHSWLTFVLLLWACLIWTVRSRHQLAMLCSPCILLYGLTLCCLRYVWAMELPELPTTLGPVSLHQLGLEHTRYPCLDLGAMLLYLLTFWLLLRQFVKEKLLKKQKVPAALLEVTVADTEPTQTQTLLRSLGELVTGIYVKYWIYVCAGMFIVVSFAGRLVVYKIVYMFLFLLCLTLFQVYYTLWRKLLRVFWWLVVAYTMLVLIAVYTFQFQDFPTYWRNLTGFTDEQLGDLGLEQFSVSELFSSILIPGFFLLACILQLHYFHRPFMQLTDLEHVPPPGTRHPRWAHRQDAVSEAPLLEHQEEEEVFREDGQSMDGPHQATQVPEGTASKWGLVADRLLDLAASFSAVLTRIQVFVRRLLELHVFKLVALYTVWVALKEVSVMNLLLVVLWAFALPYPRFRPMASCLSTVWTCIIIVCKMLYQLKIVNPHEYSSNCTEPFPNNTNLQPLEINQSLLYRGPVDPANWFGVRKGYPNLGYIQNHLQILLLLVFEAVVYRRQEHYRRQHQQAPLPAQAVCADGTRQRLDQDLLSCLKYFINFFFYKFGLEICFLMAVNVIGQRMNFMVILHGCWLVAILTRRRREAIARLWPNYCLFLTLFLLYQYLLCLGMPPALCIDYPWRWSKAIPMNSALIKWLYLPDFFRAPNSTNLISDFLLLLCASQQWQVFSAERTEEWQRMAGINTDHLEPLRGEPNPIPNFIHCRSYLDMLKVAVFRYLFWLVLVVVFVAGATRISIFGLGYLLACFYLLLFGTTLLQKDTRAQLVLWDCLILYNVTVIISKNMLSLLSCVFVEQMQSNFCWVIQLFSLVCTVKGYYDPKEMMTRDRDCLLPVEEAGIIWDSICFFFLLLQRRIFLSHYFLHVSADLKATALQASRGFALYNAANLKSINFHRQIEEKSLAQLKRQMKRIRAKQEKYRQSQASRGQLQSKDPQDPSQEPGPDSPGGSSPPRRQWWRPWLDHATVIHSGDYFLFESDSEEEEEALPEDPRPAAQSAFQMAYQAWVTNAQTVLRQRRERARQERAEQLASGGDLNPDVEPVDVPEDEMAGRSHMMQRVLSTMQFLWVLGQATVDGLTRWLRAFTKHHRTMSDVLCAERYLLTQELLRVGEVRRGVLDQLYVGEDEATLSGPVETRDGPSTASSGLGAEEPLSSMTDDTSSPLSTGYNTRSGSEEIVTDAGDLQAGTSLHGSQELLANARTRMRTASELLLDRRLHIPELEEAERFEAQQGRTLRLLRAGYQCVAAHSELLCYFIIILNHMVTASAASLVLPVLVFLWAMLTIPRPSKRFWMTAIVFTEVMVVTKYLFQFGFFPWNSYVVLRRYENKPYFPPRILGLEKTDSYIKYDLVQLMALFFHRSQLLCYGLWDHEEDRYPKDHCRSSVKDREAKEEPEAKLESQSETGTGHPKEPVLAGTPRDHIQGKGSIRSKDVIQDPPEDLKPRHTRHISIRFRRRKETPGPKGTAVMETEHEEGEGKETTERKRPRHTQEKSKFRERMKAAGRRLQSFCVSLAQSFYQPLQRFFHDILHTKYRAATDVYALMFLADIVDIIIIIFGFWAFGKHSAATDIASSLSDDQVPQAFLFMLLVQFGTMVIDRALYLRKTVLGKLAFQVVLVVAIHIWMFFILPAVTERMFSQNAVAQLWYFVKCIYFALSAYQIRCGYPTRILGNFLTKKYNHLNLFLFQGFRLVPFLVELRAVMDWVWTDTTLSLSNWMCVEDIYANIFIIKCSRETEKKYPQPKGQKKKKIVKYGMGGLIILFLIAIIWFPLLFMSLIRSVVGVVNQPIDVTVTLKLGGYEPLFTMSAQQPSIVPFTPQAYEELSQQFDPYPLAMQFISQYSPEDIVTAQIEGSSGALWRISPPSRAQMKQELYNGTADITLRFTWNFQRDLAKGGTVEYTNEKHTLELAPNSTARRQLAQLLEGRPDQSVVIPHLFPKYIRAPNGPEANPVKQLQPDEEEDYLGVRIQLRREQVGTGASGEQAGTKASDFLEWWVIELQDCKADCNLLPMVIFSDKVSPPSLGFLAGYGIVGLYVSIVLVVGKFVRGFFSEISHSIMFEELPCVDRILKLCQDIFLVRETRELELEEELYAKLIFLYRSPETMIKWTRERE
Procedure: as §1, §2

N2A cells = experiment: Whole-cell mechanical stimulation (piezo-driven glass probe), MA currents in N2A cells; format: cell-based, mouse
Procedure: Cell culture and transient transfection. Neuro2A cells were grown in Eagle's Minimum Essential Medium containing 4.5 mg.ml^−1 glucose, 10% fetal bovine serum, 50 units.ml^−1 penicillin and 50 μg.ml^−1 streptomycin. C2C12 or Human Embryonic Kidney 293T (HEK293T) cells were grown in Dulbecco's Modified Eagle Medium containing 4.5 mg.ml^−1 glucose, 10% fetal bovine serum, 50 units.ml^−1 penicillin and 50 μg.ml^−1 streptomycin. Cells were plated onto 35 mm dishes or 12-mm round glass coverslips placed in 24-well plates and transfected using lipofectamine 2000 (Invitrogen) according to the manufacturer's instructions. For Piezo1 overexpression experiment, 500 to 1000 ng.ml^−1 of Piezo1-IRES-GFP or vector only were transfected, and cells were recorded 12-48 hours later. For Piezo2 overexpression experiments, 600 to 1000 ng.ml^−1 of mPiezo2 or vector were co-transfected with 300 ng.ml^−1 GFP to identify transfected cells and cells were recorded 12-48 hours later. […]
(§3) Patch-clamp experiments were performed in standard whole-cell or cell attached recordings using an Axopatch 200B amplifier (Axon Instruments). […] Voltages were not corrected for a liquid junction potential excepted for ion selectivity experiments were LJP were calculated using Clampex 10.1 software (Axon Instruments). […]

C2C12 cells = experiment: Whole-cell mechanical stimulation, MA currents in C2C12 cells; format: cell-based, mouse; conditions: NMDG-chloride external solution, data not shown
Procedure: Cell culture and transient transfection. Neuro2A cells were grown in Eagle's Minimum Essential Medium containing 4.5 mg.ml^−1 glucose, 10% fetal bovine serum, 50 units.ml^−1 penicillin and 50 μg.ml^−1 streptomycin. C2C12 or Human Embryonic Kidney 293T (HEK293T) cells were grown in Dulbecco's Modified Eagle Medium containing 4.5 mg.ml^−1 glucose, 10% fetal bovine serum, 50 units.ml^−1 penicillin and 50 μg.ml^−1 streptomycin. Cells were plated onto 35 mm dishes or 12-mm round glass coverslips placed in 24-well plates and transfected using lipofectamine 2000 (Invitrogen) according to the manufacturer's instructions. For Piezo1 overexpression experiment, 500 to 1000 ng.ml^−1 of Piezo1-IRES-GFP or vector only were transfected, and cells were recorded 12-48 hours later. For Piezo2 overexpression experiments, 600 to 1000 ng.ml^−1 of mPiezo2 or vector were co-transfected with 300 ng.ml^−1 GFP to identify transfected cells and cells were recorded 12-48 hours later.
as §3

`N.N.N.N.N.N.N.N.N.N.N.N.N.N.[Cl-].[Cl-].[Cl-].[Cl-].[Cl-].[Cl-].[O-2].[O-2].[Ru+3].[Ru+3].[Ru+4]` [ruthenium red] was tested, and the “Percent block of Piezo2-induced MA currents” value (Piezo2) was 79.2±4.2% and the “Percent block of Piezo1-induced MA current” value (Piezo1) was 74.6±2.5%.
With `CNC[C@H](O)[C@@H](O)[C@H](O)[C@H](O)CO` [NMDG] the “Effect on Piezo2-induced currents” value (Piezo2; perfusion with NMDG-Cl solution) was “suppressed”, the “Effect on inward endogenous MA currents” value (N2A cells; NMDG-chloride external solution, data not shown) was “suppressed” and the “Effect on inward endogenous MA currents” value (C2C12 cells) was “suppressed”. The “Effect on inward Piezo1-induced MA currents” value (Piezo1; NMDG substituted in extracellular bathing solution (150 mM NMDG-Cl)) was “suppressed”.
With `O=C(O)CN(CCOCCOCCN(CC(=O)O)CC(=O)O)CC(=O)O` [EGTA] the “Effect on MA currents” value (N2A cells; extracellular perfusion of divalent-free 5 mM EGTA solution for 30-60 min) was “did not suppress”.
With `[Gd]` [gadolinium] the “Percent block of Piezo2-induced MA currents” value (Piezo2) was 85.0±3.7% and the “Percent block of Piezo1-induced MA current” value (Piezo1) was 84.3±3.8%.
